Assays:
786-0 = experiment: NCI panel growth inhibition, sulforhodamine B; type: cell-based; settings: Homo sapiens; 786-0, Renal cancer; drug for last 48 h of 72 h
Source text: (§1) Comparison of anticancer activities of the 1,3-substituted adamantane derivatives, 1,3-bis(4-aminophenyl)adamantane (1,3-DPANH2), 1,3-bis(4-(4-aminophenoxy)phenyl)adamantane (1,3-DPAONH2), 1,3-bis(4-(4-amino-3-hydroxy)phenyl)adamantane (1,3-DPA/OH/NH2) and 1,3-bis(4-(4-amino-2-trifluoromethylphenoxy)phenyl)adamantane (1,3-DPA/CF3/NH2) as shown in FIG. 1 were synthesized in the present invention. Those compounds were submitted to the National Cancer Institute for anticancer assay in culture against a standard panel of cell lines. […] To further confirm that the different substituents (CF3 and OH) on the phenyl ring of 1,3-DPAONH2 affect the growth inhibition of cancer cells. […] The transformations of 1,3-DPAONH2 to 1,3-DPA/OH/NH2 led to a remarked enhancement of anticancer activity toward all the tested cancer lines. The role of the OH group at the ortho position of the NH2 on growth inhibition is remarkable. In addition, one compound (1,3-DPA/OH/NH2) was confirmed to have an IC50 of <1 μM against one of the cells (BT-549 breast carcinoma). Comparison of anticancer activities of 1,3-substituted diaminophenyladamantane derivatives, the following order of potency against the tested cancer lines was observed: 1,3-DPA/OH/NH2>1,3-DPAONH2>1,3-DPANH2>1,3-DPA/CF3/NH2.

ACHN = experiment: NCI panel growth inhibition, sulforhodamine B; type: cell-based; settings: Homo sapiens, Renal cancer, drug for last 48 h of 72 h
Source text: as §1

CCRF-CEM = experiment: NCI panel growth inhibition, sulforhodamine B; type: cell-based; settings: Homo sapiens, Leukemia, drug for last 48 h of 72 h
Source text: as §1

DU-145 = experiment: NCI panel growth inhibition, sulforhodamine B; type: cell-based; settings: Homo sapiens; DU-145, Prostate cancer; drug for last 48 h of 72 h
Source text: as §1

HL-60(TB) = experiment: NCI panel growth inhibition, sulforhodamine B; type: cell-based; settings: Homo sapiens, Leukemia, drug for last 48 h of 72 h
Source text: as §1

HOP-62 = experiment: NCI panel growth inhibition, sulforhodamine B; type: cell-based; settings: Homo sapiens; HOP-62, NSCLC; drug for last 48 h of 72 h
Source text: as §1

HS 578T = experiment: NCI panel growth inhibition, sulforhodamine B; type: cell-based; settings: Homo sapiens, Breast cancer, drug for last 48 h of 72 h
Source text: as §1

HT29 = experiment: NCI panel growth inhibition, sulforhodamine B; type: cell-based; settings: Homo sapiens, HT-29; HT29, Colon cancer; drug for last 48 h of 72 h
Source text: as §1

IGROV1 = experiment: NCI panel growth inhibition, sulforhodamine B; type: cell-based; settings: Homo sapiens, IGROV-1; IGROV1, Ovarian cancer; drug for last 48 h of 72 h
Source text: as §1

KM12 = experiment: NCI panel growth inhibition, sulforhodamine B; type: cell-based; settings: Homo sapiens, KM12, KM12, Colon cancer; drug for last 48 h of 72 h
Source text: as §1

LOX IMVI = experiment: NCI panel growth inhibition, sulforhodamine B; type: cell-based; settings: Homo sapiens, Melanoma, drug for last 48 h of 72 h
Source text: as §1

MALME-3M = experiment: NCI panel growth inhibition, sulforhodamine B; type: cell-based; settings: Homo sapiens, Melanoma, drug for last 48 h of 72 h
Source text: as §1

MDA-MB-231 = experiment: NCI panel growth inhibition, sulforhodamine B; type: cell-based; settings: Homo sapiens; MDA-MB-231, Breast cancer; drug for last 48 h of 72 h
Source text: as §1

NCI-H226 = experiment: NCI panel growth inhibition, sulforhodamine B; type: cell-based; settings: Homo sapiens; NCI-H226, NSCLC; drug for last 48 h of 72 h
Source text: as §1

NCI-H23 = experiment: NCI panel growth inhibition, sulforhodamine B; type: cell-based; settings: Homo sapiens; NCI-H23, NSCLC; drug for last 48 h of 72 h
Source text: as §1

NCI-H322M = experiment: NCI panel growth inhibition, sulforhodamine B; type: cell-based; settings: Homo sapiens, NSCLC, drug for last 48 h of 72 h
Source text: as §1

OVCAR-4 = experiment: NCI panel growth inhibition, sulforhodamine B; type: cell-based; settings: Homo sapiens; OVCAR-4, Ovarian cancer; drug for last 48 h of 72 h
Source text: as §1

OVCAR-8 = experiment: NCI panel growth inhibition, sulforhodamine B; type: cell-based; settings: Homo sapiens; OVCAR-8, Ovarian cancer; drug for last 48 h of 72 h
Source text: as §1

RXF-393 = experiment: NCI panel growth inhibition, sulforhodamine B; type: cell-based; settings: Homo sapiens; RXF-393, Renal cancer; drug for last 48 h of 72 h
Source text: as §1

SF-268 = experiment: NCI panel growth inhibition, sulforhodamine B; type: cell-based; settings: Homo sapiens; SF-268, CNS cancer; drug for last 48 h of 72 h
Source text: as §1

T-47D = experiment: NCI panel growth inhibition, sulforhodamine B; type: cell-based; settings: Homo sapiens, T47D, Breast cancer, drug for last 48 h of 72 h
Source text: as §1

UACC-62 = experiment: NCI panel growth inhibition, sulforhodamine B; type: cell-based; settings: Homo sapiens; UACC-62, Melanoma; drug for last 48 h of 72 h
Source text: as §1

RPMI-8226 = experiment: NCI panel growth inhibition, sulforhodamine B; type: cell-based; settings: Homo sapiens; RPMI-8226, Leukemia; drug for last 48 h of 72 h
Source text: as §1

[1] = tested on: NCI's human cancer cell lines; experiment: NCI panel growth inhibition, whole panel summary; type: cell-based; settings: in vitro
Source text: as §1, with “1,3-DPA/OH/NH2>1,3-DPAONH2>1,3-DPANH2>1,3-DPA/CF3/NH2. […]” for “1,3-DPA/OH/NH2>1,3-DPAONH2>1,3-DPANH2>1,3-DPA/CF3/NH2.”

[2] = Toxicity, body weight and histology, DPA twice a week; type: in vivo, ICR nude mice

Compound | IC50 (786-0) [µM] | IC50 (ACHN) [µM] | IC50 (CCRF-CEM) [µM] | IC50 (DU-145) [µM] | IC50 (HL-60(TB)) [µM] | IC50 (HOP-62) [µM] | IC50 (HS 578T) [µM] | IC50 (HT29) [µM] | IC50 (IGROV1) [µM] | IC50 (KM12) [µM] | IC50 (LOX IMVI) [µM] | IC50 (MALME-3M) [µM] | IC50 (MDA-MB-231) [µM] | IC50 (NCI-H226) [µM] | IC50 (NCI-H23) [µM] | IC50 (NCI-H322M) [µM] | IC50 (OVCAR-4) [µM] | IC50 (OVCAR-8) [µM] | IC50 (SF-268) [µM] | IC50 (UACC-62) [µM] | further results
Nc1ccc(Oc2ccc(C34CC5CC(C3)CC(c3ccc(Oc6ccc(N)cc6C(F)(F)F)cc3)(C5)C4)cc2)c(C(F)(F)F)c1 [1,3-DPA/CF3/NH2, 1,3-bis-(4-(4-amino-2-trifluoromethylphenoxy)phenyl)adamantane] | 31.5 | 32.9 | 36.2 | 35.2 | 24.2 | 18.2 | 17.1 | 17.2 | 19.5 | 21 | 17.9 | 22.2 | 15.2 | 19.4 | 17.7 | 20.1 | 36.6 | 16 | 17.4 | 22.1 | IC50 (RXF-393): 11.1 µM; IC50 (T-47D): 15.1 µM
Nc1ccc(Oc2ccc(C34CC5CC(C3)CC(c3ccc(Oc6ccc(N)c(O)c6)cc3)(C5)C4)cc2)cc1O [1,3-DPA/OH/NH2, 1,3-bis-(4-(4-amino-3-hydroxyphenoxy)phenyl)adamantane] | 2.83 | 1.61 |  | 1.72 | 2.12 | 5.53 | 1.63 |  | 1.38 | 1.72 | 1.64 | 1.93 | 1.62 | 5.05 | 1.86 | 1.26 | 2.02 | 2.03 | 1.16 | 2.65 | IC50 (RPMI-8226): 2.54 µM; IC50 (RXF-393): 1.61 µM; IC50 (T-47D): 1.66 µM; growth inhibitory activity against the tested cancer cell lines (in words) [1]: strong growth inhibitory activities
Nc1ccc(C23CC4CC(C2)CC(c2ccc(N)cc2)(C4)C3)cc1 [1,3-DPANH2, 1,3-bis(4-aminophenyl)adamantane] | 38.5 | 41.1 | 15.7 | 51.2 | 30.9 | 60 |  |  | > 100 | > 100 | > 100 |  | 19.6 | 11.5 | 59.6 |  | 10.2 | 85.1 | 45.2 | 29 | IC50 (RPMI-8226): 10.7 µM
Nc1ccc(Oc2ccc(C34CC5CC(C3)CC(c3ccc(Oc6ccc(N)cc6)cc3)(C5)C4)cc2)cc1 [1,3-DPAONH2, 1,3-bis(4-(4-aminophenoxy)phenyl)adamantane] | 8.09 | 11.7 | 4.83 | 6.41 | 17.1 | 10.7 | 11.7 | 7.12 | 2.64 | 4.07 | 2.44 | 14.6 | 16.9 | 23.2 | 6.92 | 8.84 | 6.98 | 4.82 | 5.6 | 9.64 | IC50 (RPMI-8226): 4.14 µM; IC50 (RXF-393): 7.78 µM; IC50 (T-47D): 5.67 µM
Nc1ccc(C2(c3ccc(N)cc3)C3CC4CC(C3)CC2C4)cc1 [2,2-DPANH2, 2,2-bis(4-aminophenyl)adamantane] |  | 18.6 | 3.76 |  | 19.2 | 13.6 |  | 0.1 | 9.6 |  | 16.2 |  | 17.4 | 12.4 | 19.9 |  | 14.3 | 7.73 | 1.57 | 16.3 | IC50 (RXF-393): 2.74 µM; IC50 (T-47D): 14.4 µM
Nc1ccc(Oc2ccc(C3(c4ccc(Oc5ccc(N)cc5)cc4)C4CC5CC(C4)CC3C5)cc2)cc1 [2,2-DPAONH2, 2,2-bis(4-(4-aminophenoxy)phenyl)adamantane] | 3.07 | 13.4 | 3.03 | 3.31 | 5 | 11.8 | 4.91 | 2.96 | 5.88 | 3.55 | 2.75 | 13.6 | 17 | 21.4 | 5.15 | 0.184 | 6.96 | 5.82 | 6.44 | 17.7 | IC50 (RPMI-8226): 3.01 µM
Nc1ccc(Oc2ccc(C3(c4ccc(Oc5ccc(N)c(O)c5)cc4)C4CC5CC(C4)CC3C5)cc2)cc1O [DPA, 2,2-bis(4-(4-amino-3-hydroxyphenoxy)phenyl)adamantane] | 1.88 | 1.78 | 3.08 | 2.06 | 2.05 | 2.11 | 2.35 | 1.81 | 1.75 | 2.02 | 1.69 | 2.02 | 1.82 | 1.94 | 1.84 | 1.41 | 3.07 | 1.68 | 1.62 | 3.21 | IC50 (RPMI-8226): 1.92 µM; IC50 (RXF-393): 1.82 µM; IC50 (T-47D): 4.13 µM; growth inhibitory activity against the tested cancer cell lines (in words) [1]: strong growth inhibitory activities; acute toxicity ([2]; DPA 20~80 mg/kg, i.p., twice a week): no obviously acute toxicity; body weight ([2]; DPA-treated mice, twice a week): no significant reduction in body weight; tissue damage in liver, lung and kidney ([2]; tissue slices stained with haematoxylin and eosin): no tissue damage was observed

Source: patent US7365231B2, “Compound with antitumor activity and preparation method therefor” (National Taiwan University of Science & Technology, priority 2005, dated 2008)
